The results in this text go back to publication PMC7408547, “Bivalent Inhibitor with Selectivity for Trimeric MMP-9 Amplifies Neutrophil Chemotaxis and Enables Functional Studies on MMP-9 Proteoforms” (Cells, 2020).

Structures are written as SMILES.

What all share (type): biochemical
Assay [1] deals with T1, human neutrophil-derived MMP-9 monomers (Homo sapiens, UniProt P14780).
T1 construct: purchased Sigma-Aldrich 444,231; host or cells: human neutrophils (natural protein)
The assay is described as follows: Gelatin degradation assay, neutrophil-derived MMP-9 monomers. The settings on record: MMP-9 isolated from human neutrophils, mono. As to the method: Compounds 5 and 7 were synthesized as previously reported. Full-length human proMMP-9 was produced by recombinant expression in Sf9 insect cells and purified by gelatin-Sepharose chromatography as previously described. Stable full-length proMMP-9 monomers and trimers were separated by glycerol gradient ultracentrifugation as previously described. ProMMP-9 mixture and the separated monomers and trimers were activated by incubation with the catalytic domain of MMP-3 (cat. No. 444217, Merck Millipore, Darmstadt, Germany) as previously described. Activation of proMMP-9 was confirmed by a band shift of ±10 kDa, corresponding to the removal of the auto-inhibitory propeptide domain and by detection of gelatinolytic activity with a previously described gelatin degradation assay. MMP-9 monomers and trimers purified from human neutrophils were purchased (Cat. No. 444,231 and 444232, Sigma-Aldrich, St. Louis, MO, USA). Examples of sample purities and activations can be found in Supplementary Figure S1. Recombinant human proMMP-2 (CHO cell-derived), proMMP-3 (NS0 cell-derived), proMMP-7 (NS0 cell-derived) and proMMP-8 (NS0 cell-derived) were purchased from R & D systems (Minneapolis, MN, USA), dissolved in assay buffer (150 mM NaCl, 5 mM CaCl2, 0.01% Tween-20, 50 mM Tris, pH 7.4) to a concentration of 100 µg/mL and activated by incubation with 1 mM p-aminophenylmercuric acetate for, respectively, 1h, 6h, 2h and 1h. Activation of MMPs was confirmed by a band shift of approximately 10 kDa, corresponding to the removal of the propeptide domain. MMP-14/MT1-MMP (NS0 cell-derived) was also purchased from R & D systems (Minneapolis, MN, USA) and activated by incubation with recombinant human furin (cat. No. 1503-SE-010, R & D systems, Minneapolis, MO, USA) in activation buffer (50 mM Tris, 1 mM CaCl2, 0.5% Brij-35, pH 9) for 1.5 h and activity was tested in assay buffer (50 mM Tris, 3 mM CaCl2, 1 µM ZnCl2, pH 8.5). Active human neutrophil elastase (NE) was purchased from Abcam (Cambridge, UK) and for activity assays of NE the assay buffer was replaced by 200 mM Tris, pH 8.8. ADAM17/TACE (Sf 21 (baculovirus)-derived, R & D systems, Minneapolis, MO, USA) was diluted and evaluated in 25 mM Tris, 2.5 μM ZnCl2, 0.005% Brij-35, pH 9.0. All stocks of the compounds were evaluated for the presence of endotoxin using the EndoZyme II assay (Hyglos bioMérieux, Bernried am Starnberger See, Germany). Endotoxin levels in all concentrated stocks (2.5 mg/mL) were below the accepted limit of 0.5 EU/mL.
To determine the inhibition of gelatinolytic activity, we used a previously optimized gelatin degradation assay. Activated MMP-9, activated MMP-2, neutrophil elastase or supernatants of stimulated neutrophils, were incubated with different concentrations of inhibitors and incubated for 30 min at 37 °C. Next, dye-quenched gelatin (DQ™-gelatin, Invitrogen, Carlsbad, CA, USA) was added at a final concentration of 2.5 µg/mL and the increase in fluorescence over time was measured with the CLARIOstar microplate reader (BMG Labtech, Ortenberg, Germany). For other MMPs, the OmniMMP substrate peptide (Mca-PLGL-Dpa-AR-NH2, cat. no. BML-P126-0001, Enzo Life Sciences, Farmingdale, NY, USA) was used at a final concentration of 2.5 µg/mL. For ADAM17 the fluorogenic peptide Mca-PLAQAV-Dpa-RSSSR-NH2 (ES003, R & D systems, Minneapolis, MO, USA) and for neutrophil elastase the fluorogenic substrate MeOSuc-AAPV-AMC (cat. no. 324740, Merck Millipore, Darmstadt, Germany) were used. Proteolytic activity was determined by linear regression of the fluorescence curve and the percentage inhibition was calculated through comparison with the positive control (no inhibitors). When testing supernatants from human neutrophils, the assay was performed in the presence of 20 µM neutrophil elastase inhibitor (Elastase Inhibitor IV, Calbiochem, Darmstadt, Germany).

The next assay deals with T2, neutrophil elastase (Homo sapiens, UniProt P08246).
T2 construct: Active human neutrophil elastase (NE) was purchased from Abcam; purchased Abcam
T2 sequence (P08246 30-267): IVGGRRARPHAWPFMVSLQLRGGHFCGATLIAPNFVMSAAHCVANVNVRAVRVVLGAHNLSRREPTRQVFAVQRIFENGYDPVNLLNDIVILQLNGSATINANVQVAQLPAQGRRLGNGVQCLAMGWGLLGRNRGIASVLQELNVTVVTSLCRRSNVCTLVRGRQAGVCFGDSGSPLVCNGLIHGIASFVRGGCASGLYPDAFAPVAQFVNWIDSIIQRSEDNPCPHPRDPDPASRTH
Description: Neutrophil elastase activity assay (fluorogenic elastase peptide and gelatin). The settings on record: fluorogenic elastase substrate and gelatin; tested up to an inhibitor concentration of 50 µM. The protocol:
(§1) Compounds 5 and 7 were synthesized as previously reported. Full-length human proMMP-9 was produced by recombinant expression in Sf9 insect cells and purified by gelatin-Sepharose chromatography as previously described. Stable full-length proMMP-9 monomers and trimers were separated by glycerol gradient ultracentrifugation as previously described. ProMMP-9 mixture and the separated monomers and trimers were activated by incubation with the catalytic domain of MMP-3 (cat. No. 444217, Merck Millipore, Darmstadt, Germany) as previously described. […] ADAM17/TACE (Sf 21 (baculovirus)-derived, R & D systems, Minneapolis, MO, USA) was diluted and evaluated in 25 mM Tris, 2.5 μM ZnCl2, 0.005% Brij-35, pH 9.0. All stocks of the compounds were evaluated for the presence of endotoxin using the EndoZyme II assay (Hyglos bioMérieux, Bernried am Starnberger See, Germany). […]
(§2) To determine the inhibition of gelatinolytic activity, we used a previously optimized gelatin degradation assay. […] Next, dye-quenched gelatin (DQ™-gelatin, Invitrogen, Carlsbad, CA, USA) was added at a final concentration of 2.5 µg/mL and the increase in fluorescence over time was measured with the CLARIOstar microplate reader (BMG Labtech, Ortenberg, Germany). […]

Another assay deals with T3, MMP-7 (Homo sapiens, UniProt P09237).
T3 construct: purchased R & D systems; host or cells: NS0 cells
T3 sequence (P09237 95-267): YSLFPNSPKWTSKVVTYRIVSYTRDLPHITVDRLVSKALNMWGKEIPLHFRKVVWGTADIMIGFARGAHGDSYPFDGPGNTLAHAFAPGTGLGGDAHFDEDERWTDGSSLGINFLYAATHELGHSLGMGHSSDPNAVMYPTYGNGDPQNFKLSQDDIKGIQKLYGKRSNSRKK
The assay is described as follows: MMP-7 OmniMMP peptide assay. As to conditions: OmniMMP substrate peptide. The protocol: as §1, §2

For the next assay, the target named is T4, MMP-2 (Homo sapiens, UniProt P08253).
T4 construct: purchased R & D systems; host or cells: CHO cells
T4 sequence (P08253 110-660): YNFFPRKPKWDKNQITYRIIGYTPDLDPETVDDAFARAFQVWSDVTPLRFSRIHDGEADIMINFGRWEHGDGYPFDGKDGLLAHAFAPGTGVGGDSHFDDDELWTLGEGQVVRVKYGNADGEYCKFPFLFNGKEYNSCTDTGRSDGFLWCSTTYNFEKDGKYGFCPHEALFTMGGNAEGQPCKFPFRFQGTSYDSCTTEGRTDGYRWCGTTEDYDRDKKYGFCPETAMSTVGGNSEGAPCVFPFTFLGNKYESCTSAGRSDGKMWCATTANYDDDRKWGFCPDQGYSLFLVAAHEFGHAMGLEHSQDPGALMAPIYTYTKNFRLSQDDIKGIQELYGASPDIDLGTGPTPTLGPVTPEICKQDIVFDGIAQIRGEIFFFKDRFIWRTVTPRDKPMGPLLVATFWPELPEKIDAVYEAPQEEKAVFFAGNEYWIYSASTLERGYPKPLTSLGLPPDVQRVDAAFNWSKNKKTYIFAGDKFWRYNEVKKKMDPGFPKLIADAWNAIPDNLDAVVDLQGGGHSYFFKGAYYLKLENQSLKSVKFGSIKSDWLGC
Description: MMP-2 gelatin degradation assay. As to conditions: gelatin substrate. As to the method:
as §1, §2

T1 sequence (P14780 107-707 limits assumed): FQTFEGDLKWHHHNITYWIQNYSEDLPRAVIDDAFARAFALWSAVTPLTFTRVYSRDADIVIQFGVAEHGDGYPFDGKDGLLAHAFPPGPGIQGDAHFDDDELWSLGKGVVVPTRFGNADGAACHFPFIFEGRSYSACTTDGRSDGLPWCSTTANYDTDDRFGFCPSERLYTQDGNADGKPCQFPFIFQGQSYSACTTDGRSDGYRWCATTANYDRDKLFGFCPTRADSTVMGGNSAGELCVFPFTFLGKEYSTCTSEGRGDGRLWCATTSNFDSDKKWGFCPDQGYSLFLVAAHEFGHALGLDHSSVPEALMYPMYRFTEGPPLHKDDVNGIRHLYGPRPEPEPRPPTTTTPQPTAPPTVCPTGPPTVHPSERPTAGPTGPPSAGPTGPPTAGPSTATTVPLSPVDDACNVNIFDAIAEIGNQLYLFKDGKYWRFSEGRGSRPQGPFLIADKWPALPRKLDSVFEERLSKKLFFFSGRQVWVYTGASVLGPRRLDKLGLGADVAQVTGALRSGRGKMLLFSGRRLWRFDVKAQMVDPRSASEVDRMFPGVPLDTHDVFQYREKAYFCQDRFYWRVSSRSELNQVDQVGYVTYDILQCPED

One may read the IC25 as the concentration at which the effect reaches the 25% level. A higher IC25 goes with a need for much substance. The term IC50 denotes the concentration at which inhibition is half-maximal. Lower therefore signals higher potency. A word on the IC75: it is the concentration at which the effect reaches the 75% level. Read a low IC75 as greater potency. For the compound `CC(C)[C@H](C(=O)O)N(CCNC(=O)c1cccc(C(=O)NCCN([C@@H](C(=O)O)C(C)C)S(=O)(=O)c2ccc(-c3ccccc3)cc2)c1)S(=O)(=O)c1ccc(-c2ccccc2)cc1` [Compound 7], the concentration for an effect of 25% (IC25) in assay [1] turned out to be 10 nM. For the same compound, the IC50 in assay [1] was 43 nM; against neutrophil elastase, “no inhibition ^†”; against MMP-7 it was over 10000 nM; against MMP-2 it was 4.8 nM. This compound gave an IC75 in assay [1] of 181 nM.
On to `CC(C)[C@H](C(=O)O)N(CCNC(=O)c1ccccc1)S(=O)(=O)c1ccc(-c2ccccc2)cc1` [Compound 5], for which the IC25 in assay [1] is on record as 300 nM. Further, the IC50 was 1150 nM in assay [1], “no inhibition ^†” on neutrophil elastase, over 10000 nM at MMP-7 and 1720 nM against MMP-2. In assay [1], this compound gave an IC75 of 4431 nM.
